Laboratory results published in the NIST ThermoML archive (doi:10.1021/je800998u).

Assay: molar heat capacity at constant pressure
Conditions: 101.33 kPa, Crystal 2, Small (less than 1 g) adiabatic calorimetry

CC(C)COCC(C)C [diisobutyl ether]
Conditions | molar heat capacity at constant pressure [J/K/mol]
8.82 K | 1.718
9.09 K | 1.873
9.35 K | 2.044
9.61 K | 2.275
9.86 K | 2.429
10 K | 2.519
10.18 K | 2.65
10.58 K | 2.937
10.96 K | 3.313
11.34 K | 3.685
11.75 K | 4.078
12.13 K | 4.434
12.5 K | 4.803
12.88 K | 5.199
13.25 K | 5.584
13.61 K | 6.04
13.98 K | 6.505
14.34 K | 6.941
14.71 K | 7.42
15 K | 7.709
15.07 K | 7.816
15.44 K | 8.198
15.8 K | 8.608
16.15 K | 9.109
16.51 K | 9.706
16.86 K | 10.12
17.21 K | 10.68
17.57 K | 11.14
17.92 K | 11.79
18.28 K | 12.13
18.63 K | 12.7
18.98 K | 13.24
19.33 K | 13.71
19.68 K | 14.26
20 K | 14.73
20.03 K | 14.7
20.68 K | 15.81
21.44 K | 17.01
22.21 K | 18.14
22.97 K | 19.36
23.73 K | 20.47
24.49 K | 21.77
25 K | 22.61
25.25 K | 22.85
26 K | 24.23
26.76 K | 25.53
27.53 K | 26.72
28.29 K | 27.81
29.04 K | 29.05
29.8 K | 30
30 K | 30.39
30.56 K | 31.03
31.31 K | 32.45
32.07 K | 33.45
32.84 K | 34.56
33.59 K | 35.68
34.35 K | 36.74
35 K | 37.65
35.1 K | 37.87
35.86 K | 38.82
36.61 K | 39.8
37.36 K | 40.72
38.11 K | 42.01
38.86 K | 43.03
39.62 K | 44.08
40 K | 44.52
40.37 K | 45.1
41.12 K | 46.17
41.87 K | 47.05
42.62 K | 47.91
43.37 K | 48.99
44.12 K | 49.85
44.88 K | 50.69
45 K | 51.04
45.63 K | 51.79
46.38 K | 52.94
47.13 K | 53.72
47.88 K | 54.52
48.63 K | 55.63
49.38 K | 56.47
50 K | 57.22
50.12 K | 57.39
50.87 K | 58.27
51.62 K | 59.17
52.36 K | 60.07
53.11 K | 61.06
53.85 K | 62.18
54.6 K | 63.09
55 K | 63.54
55.34 K | 63.95
56.09 K | 64.95
56.83 K | 66.04
57.57 K | 67.47
59.06 K | 68.36
59.81 K | 69.16
60 K | 69.69
60.55 K | 69.92
61.29 K | 71.03
62.03 K | 72.13
62.77 K | 72.85
63.51 K | 73.59
64.25 K | 74.59
64.99 K | 75.44
65 K | 75.34
65.73 K | 76.13
66.47 K | 76.73
67.21 K | 77.8
67.95 K | 78.53
68.69 K | 79.4
69.43 K | 79.64
70 K | 80.28
70.16 K | 80.5
71.06 K | 80.99
72.11 K | 81.81
73.16 K | 83.2
74.21 K | 84.22
75 K | 84.76
75.26 K | 84.92
76.31 K | 85.85
77.36 K | 86.85
77.99 K | 88.21
78.41 K | 87.75
79.13 K | 89.1
79.45 K | 89.04
80 K | 89.65
80.18 K | 90.02
80.5 K | 89.99
81.22 K | 91.36
81.55 K | 90.95
82.26 K | 92.28
82.59 K | 92.15
83.3 K | 92.88
83.63 K | 93.23
84.34 K | 93.83
84.68 K | 93.86
85 K | 94.92
85.37 K | 94.92
85.72 K | 96.14
86.41 K | 96.9
87.44 K | 97.86
88.48 K | 98.97
89.51 K | 100
90 K | 100.3
90.55 K | 101.18
91.58 K | 101.87
92.61 K | 102.82
93.65 K | 104.36
94.68 K | 104.93
95 K | 105.3
95.71 K | 105.7
96.75 K | 106.52
97.78 K | 107.57
98.81 K | 108.62
99.84 K | 109.08
100 K | 109.7
100.86 K | 110.59
101.89 K | 111.96
102.92 K | 112.24
103.95 K | 113.24
104.98 K | 114.44
106.01 K | 115.08
107.04 K | 116.13
108.06 K | 116.43
109.09 K | 117.54
110 K | 118.6
110.11 K | 118.56
111.14 K | 119.31
112.16 K | 120.35
113.18 K | 121.34
114.21 K | 122.79
115.23 K | 123.92
116.25 K | 124.47
117.27 K | 125.86
118.29 K | 126.81
119.32 K | 127.51
120 K | 128
120.34 K | 128.32
121.36 K | 129.04
122.38 K | 130.15
123.4 K | 131.15
124.42 K | 131.86
125.44 K | 132.59
126.46 K | 133.8
127.47 K | 134.67
128.49 K | 135.82
129.51 K | 137.05
130 K | 137.1
130.53 K | 137.63
131.54 K | 138.57
132.56 K | 139.45
133.57 K | 140.23
134.59 K | 141.56
135.6 K | 142.61
136.62 K | 143.17
137.63 K | 144.11
138.64 K | 145.82
139.66 K | 146.49
140 K | 147
